Data taken from patent publication US5932574A, “Quinazoline derivatives” (Zeneca Limited, priority 1995, dated 1999).

Columns and labels:
[1] = tested on: human naso-pharyngeal cancer cell line KB; experiment: Inhibition of EGF-stimulated growth of human naso-pharyngeal cancer cell line KB, Test (b); format: cell-based; details: 72 h, EGF (10 ng/ml), 3 days, approximate
Description: (b) An in vitro assay which determines the ability of a test compound to inhibit the EGF-stimulated growth of the human naso-pharyngeal cancer cell line KB. […] Cell growth was determined after incubation for 3 days by the extent of metabolism of MTT tetrazolium dye to furnish a bluish colour. Cell growth was then determined in the presence of EGF (10 ng/ml) or in the presence of EGF (10 ng/ml) and a test compound at a range of concentrations. An IC50 value could then be calculated.

[2] = tested on: human vulval epidermoid carcinoma cell line A-431; experiment: Inhibition of growth of A-431 xenografts in athymic nude mice, Test (c); format: in vivo, human xenograft in athymic nude mice (strain ONU:Alpk); details: daily dose of 50 mg/kg, usually oral, relative to untreated controls
Description: (c) An in-vivo assay in a group of athymic nude mice (strain ONU:Alpk) which determines the ability of a test compound (usually administered orally as a ball-milled suspension in 0.5% polysorbate) to inhibit the growth of xenografts of the human vulval epidermoid carcinoma cell line A-431. A-431 cells were maintained in culture in DMEM supplemented with 5% FCS and 2 mM glutamine. Freshly cultured cells were harvested by trypsinization and injected subcutaneously (10 million cells/0.1 ml/mouse) into both flanks of a number of donor nude mice. When sufficient tumour material was available (after approximately 9 to 14 days), fragments of tumour tissue were transplanted in the flanks of recipient nude mice (test day 0). Generally, on the seventh day after transplantation (test day 7) groups of 7 to 10 mice with similar-sized tumours were selected and dosing of the test compound was commenced. Once daily dosing of test compound was continued for a total of 13 days (test days 7 to 19 inclusive). In some studies the dosing of the test compound was continued beyond test day 19, for example to test day 26. In each case, on the following test day the animals were killed and the final tumour volume was calculated from measurements of the length and width of the tumours. Results were calculated as a percentage inhibition of tumour volume relative to untreated controls.

[3] = target: T1, EGF receptor tyrosine kinase (Homo sapiens, UniProt P00533); experiment: Inhibition of EGF receptor tyrosine kinase in vitro, Test (a); format: biochemical; details: approximate
T1 construct: Receptor tyrosine kinase was obtained in partially purified form from A-431 cells (derived from human vulval carcinoma); endogenous in cells; host or cells: A-431 cells (Triton X-100 solubilised membrane fraction)
Description: (a) An in vitro assay which determines the ability of a test compound to inhibit the enzyme EGF receptor tyrosine kinase. Receptor tyrosine kinase was obtained in partially purified form from A-431 cells (derived from human vulval carcinoma) by the procedures described below which are related to those described by Carpenter et al., J. Biol. Chem., 1979, 254, 4884, Cohen et al., J. Biol. Chem., 1982, 257, 1523 and by Braun et al., J. Biol. Chem., 1984, 259, 2051.
A-431 cells were grown to confluence using Dulbecco's modified Eagle's medium (DMEM) containing 5% fetal calf serum (FCS). The obtained cells were homogenised in a hypotonic borate/EDTA buffer at pH 10.1. The homogenate was centrifuged at 400 g for 10 minutes at 0-4° C. The supernatant was centrifuged at 25,000 g for 30 minutes at 0-4° C. […]
The test compound/EGF mixture solution (5 μl) was added to the test enzyme solution (10 μl) and the mixture was incubated at 0-4° C. for 30 minutes. […] Radioactivity present in the filter paper was measured using a liquid scintillation counter (Sequence A). […]
Receptor tyrosine kinase inhibition was calculated as follows: [formula]
The extent of inhibition was then determined at a range of concentrations of test compound to give an IC50 value.

[4] = tested on: human mammary carcinoma which expresses EGF receptor tyrosine kinase; details: in words; athymic nude mice; Toi et al., 1990; cited from earlier work
[5] = tested on: another carcinoma which does not express EGF receptor tyrosine kinase; details: in words; Toi et al., 1990; cited from earlier work

T1 sequence (P00533 25-1210): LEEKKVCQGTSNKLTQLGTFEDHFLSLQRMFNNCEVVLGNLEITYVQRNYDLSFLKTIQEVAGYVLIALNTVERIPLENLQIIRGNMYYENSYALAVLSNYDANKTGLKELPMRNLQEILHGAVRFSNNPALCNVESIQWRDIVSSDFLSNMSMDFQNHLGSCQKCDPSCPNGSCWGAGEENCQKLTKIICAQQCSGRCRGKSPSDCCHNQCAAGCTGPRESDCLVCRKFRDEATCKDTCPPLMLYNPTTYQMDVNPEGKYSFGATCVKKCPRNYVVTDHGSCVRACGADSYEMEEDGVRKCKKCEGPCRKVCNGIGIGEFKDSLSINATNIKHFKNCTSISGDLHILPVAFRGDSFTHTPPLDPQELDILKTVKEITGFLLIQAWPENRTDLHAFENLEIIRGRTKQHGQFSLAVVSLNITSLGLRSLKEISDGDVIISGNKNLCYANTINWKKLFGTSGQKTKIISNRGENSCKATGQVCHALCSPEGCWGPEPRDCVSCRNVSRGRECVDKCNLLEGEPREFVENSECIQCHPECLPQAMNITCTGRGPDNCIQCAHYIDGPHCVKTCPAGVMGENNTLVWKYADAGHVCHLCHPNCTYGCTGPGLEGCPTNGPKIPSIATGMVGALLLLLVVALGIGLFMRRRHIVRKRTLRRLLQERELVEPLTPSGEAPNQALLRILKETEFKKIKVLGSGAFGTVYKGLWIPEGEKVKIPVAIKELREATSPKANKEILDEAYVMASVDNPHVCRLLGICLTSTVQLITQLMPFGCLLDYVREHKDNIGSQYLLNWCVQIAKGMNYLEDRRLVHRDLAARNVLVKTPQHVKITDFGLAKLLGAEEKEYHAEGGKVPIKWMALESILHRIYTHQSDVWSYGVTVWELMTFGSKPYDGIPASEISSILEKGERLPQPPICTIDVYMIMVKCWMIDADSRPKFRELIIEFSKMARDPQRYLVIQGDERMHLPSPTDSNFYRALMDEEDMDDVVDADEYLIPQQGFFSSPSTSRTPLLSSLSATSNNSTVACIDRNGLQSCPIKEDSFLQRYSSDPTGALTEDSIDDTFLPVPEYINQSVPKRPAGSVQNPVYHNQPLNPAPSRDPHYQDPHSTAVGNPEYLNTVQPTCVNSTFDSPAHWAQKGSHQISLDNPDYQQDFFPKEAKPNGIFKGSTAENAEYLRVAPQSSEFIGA

Structure (SMILES) | IC50 [1] [nM] | inhibition of tumour volume [2] | IC50 [3] [nM] | growth of transplanted human mammary carcinoma [4] | growth of carcinoma not expressing EGF receptor tyrosine kinase [5]
Fc1ccc(Nc2ncnc3ccc(OCCCN4CCOCC4)cc23)cc1F [4-(3',4'-difluoroanilino)-6-(3-morpholinopropoxy)quinazoline] | ~1200 | greater than 50% | – | – | –
CCN(CC)CCCOc1ccc2ncnc(Nc3ccc(F)c(Cl)c3)c2c1 [4-(3'-chloro-4'-fluoroanilino)-6-(3-diethylaminopropoxy)quinazoline] | ~100 | greater than 50% | ~3 | – | –
O=CN/C=C/c1cc(O)ccc1O [erbstatin] | – | – | – | specifically attenuates the growth | without effect on the growth
